Experimental data from patent US20160297763A1, “Heteroaryl hydroxamic acid derivatives and their use in the treatment, amelioration or prevention of a viral disease” (priority 2011, published 2016).

| SMILES | melting point |
| --- | --- |
| O=C(c1cc(NS(=O)(=O)Cc2ccccc2)ccn1)N(O)Cc1ccccc1 | 190 to 195 °C |
| O=C(c1ccc(-c2ccccc2)cn1)N(O)Cc1ccccc1 | 145 to 150 °C |
| Cl.O=C(NO)c1cc(NS(=O)(=O)Cc2cccc3cccnc23)ccn1 | 220 to 228 °C |
| Cl.O=C(NO)c1cc(NS(=O)(=O)C(c2ccccc2)c2ccccc2)ccn1 | 162 to 168 °C |
| O=C(NO)c1ccc(-c2ccccc2)cn1 | 175 to 180 °C |
| Cl.O=C(c1cc(N2CCOCC2)ccn1)N(O)Cc1ccccc1 | 185 to 190 °C |
| Cl.O=C(c1cc(N2CCC(F)(F)CC2)ccn1)N(O)Cc1ccccc1 | 90 to 95 °C |
| Cc1c(-c2ccc(Cl)c(C#N)c2)sc2nc(N)[nH]c(=O)c12 | > 360 °C |
| O=C(c1cc2ccccc2cn1)N(O)CCc1ccccc1 | 90 to 95 °C |
| Cc1c(-c2ccccc2)sc2nc(NCCN(C)C)[nH]c(=O)c12 | 199 to 201 °C |
| Cc1c(-c2cccc(F)c2)sc2nc(N)[nH]c(=O)c12 | 310 to 330 °C |
| Cl.O=C(c1cc(NS(=O)(=O)Cc2cc(Cl)cc(Cl)c2)ccn1)N(O)Cc1ccccc1 | 189 to 194 °C |
| O=C(c1cc(NS(=O)(=O)c2ccccc2)ccn1)N(O)Cc1ccccc1 | 175 to 180 °C |
| Cc1c(-c2cc(C(F)(F)F)cc(C(F)(F)F)c2)sc2nc(N)[nH]c(=O)c12 | 344 to 347 °C |
| O=C(c1cc2ccccc2cn1)N(Cc1ccccc1)OCc1ccccc1 | 70 to 75 °C |
| CC(C)c1cc2c(=O)[nH]c(N)nc2s1 | 347 to 349 °C |
| Cc1c(-c2ccccc2Cl)sc2nc(N)[nH]c(=O)c12 | 334 to 336 °C |
| Cc1cccc(C(=O)NOCc2ccccc2)n1 | 75 to 80 °C |
| Cl.O=C(c1cc(NS(=O)(=O)Cc2ccc(F)cc2)ccn1)N(O)Cc1ccccc1 | 178 to 183 °C |
| Cc1c(-c2ccc(F)c(C(F)(F)F)c2)sc2nc(N)[nH]c(=O)c12 | 310 to 330 °C |
| Nc1nc2sc(-c3ccccc3)cc2c(=O)[nH]1 | > 360 °C |

| SMILES | melting point |
| --- | --- |
| O=C(c1cc2ccccc2cn1)N(O)Cc1ccccc1 | 120 to 125 °C |
| Nc1nc2sc(-c3ccccc3)c(Cl)c2c(=O)[nH]1 | > 350 °C |
| O=C(NOCc1ccccc1)c1ccc(N2CCCC2)cn1 | 165 to 170 °C |
| CN(OCc1ccccc1)C(=O)c1cc2ccccc2cn1 | 70 to 75 °C |
| O=C(c1cc(N2CCOCC2)ccn1)N(O)Cc1ccccc1 | 105 to 110 °C |
| CN(C)S(=O)(=O)c1cccc(-c2ccnc(C(=O)N(O)Cc3ccccc3)c2)c1 | 110 to 115 °C |
| Cc1c(-c2cccc(Cl)c2F)sc2nc(N)[nH]c(=O)c12 | 330 to 350 °C |
| O=C(NOCc1ccccc1)c1ccc(-c2ccccc2)cn1 | 155 to 160 °C |
| O=C(NOCc1ccccc1)c1cc(N2CCCCC2)ccn1 | 135 to 140 °C |
| Cc1c(-c2cccc(C#N)c2F)sc2nc(N)[nH]c(=O)c12 | 350 to 370 °C |
| CC(C)(C)OC(=O)N1CCC=C(c2ccnc(C(=O)N(O)Cc3ccccc3)c2)C1 | 128 to 134 °C |
| Cl.O=C(NO)c1cc(NS(=O)(=O)Cc2cccc(C(F)(F)F)c2)ccn1 | 201 to 204 °C |
| COc1cc(-c2sc3nc(N)[nH]c(=O)c3c2C)ccc1Cl | 312 to 322 °C |
| Nc1nc2sc(Cc3ccccc3)cc2c(=O)[nH]1 | 294 to 296 °C |
| Cc1c(-c2ccnc(Cl)c2F)sc2nc(N)[nH]c(=O)c12 | 330 to 350 °C |
| Cc1c(-c2ccnc(C(F)(F)F)c2)sc2nc(N)[nH]c(=O)c12 | 335 to 355 °C |
| Cc1c(-c2ccc(F)cc2)sc2nc(N)[nH]c(=O)c12 | 325 to 335 °C |
| Cc1c(-c2ccccc2)sc2nc(NC3CCCCC3)[nH]c(=O)c12 | 265 to 270 °C |
| CCON(C)C(=O)c1ccc(-c2ccccc2)cn1 | 70 to 75 °C |
| Cc1c(-c2ccc(F)nc2F)sc2nc(N)[nH]c(=O)c12 | 330 to 335 °C |
